Values of other authors, collected in patent US20230059204A1, “T[…]-DOSING […] OF PHARMACEUTICAL AGENTS” (PIKE THERAPEUTICS, INC., priority 2021, published 2023).

System: serotonin receptors in the brain
Conditions: once ingested

CN(C)CCc1c[nH]c2cccc(OP(=O)(O)O)c12 [psilocybin, [3-(2-dimethylaminoethyl)-1H-indol-4-yl] dihydrogen phosphate]
duration of mind-altering effects: two to six
